In PubChem BioAssay AID2579 (University of Pittsburgh Molecular Library Screening Center, 2010) one finds IC50 data, which are given here for 14 compounds.

Calls of active or inactive are those of the source. The rule behind the calls is not given here.

Glucose-6-phosphate 1-dehydrogenase (Leuconostoc mesenteroides), sequence (P11411 whole entry, looked up): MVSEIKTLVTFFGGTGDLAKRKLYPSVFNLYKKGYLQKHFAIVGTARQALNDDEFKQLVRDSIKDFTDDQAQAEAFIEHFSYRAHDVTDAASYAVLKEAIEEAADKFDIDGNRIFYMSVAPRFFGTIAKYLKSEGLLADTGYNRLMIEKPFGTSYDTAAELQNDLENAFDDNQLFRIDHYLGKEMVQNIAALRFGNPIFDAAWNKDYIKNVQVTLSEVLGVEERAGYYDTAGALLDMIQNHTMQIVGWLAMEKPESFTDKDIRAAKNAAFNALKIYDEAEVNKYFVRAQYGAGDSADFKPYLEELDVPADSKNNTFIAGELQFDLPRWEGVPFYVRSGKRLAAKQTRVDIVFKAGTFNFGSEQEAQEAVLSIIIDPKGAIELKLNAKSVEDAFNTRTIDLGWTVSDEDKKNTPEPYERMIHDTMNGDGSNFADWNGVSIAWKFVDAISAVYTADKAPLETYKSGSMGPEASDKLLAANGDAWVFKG

This test has as its target Glucose-6-phosphate 1-dehydrogenase (Leuconostoc mesenteroides) (UniProt P11411). As to the kind of experiment: Leuconostoc G6PDH inhibition potency, SAR follow-up, counter-screen for TbHK1 inhibitor project, biochemical, analogue series, IC50 (AID 2579). The note with it: Purified L. mesenteroides G6PDH enzyme assay, counterscreen.
For the compound `COc1ccc(C(=O)Nc2cc(Cl)c(Br)cc2C(=O)O)cc1`, the IC50 is > 25 µM (inactive).

For the compound `CC(C)(C)c1ccc(C(=O)Nc2cc(Br)ccc2C(=O)O)cc1`, the IC50 is > 25 µM (inactive).

On to `COc1ccc(C(=O)Nc2cc(Cl)c(C)cc2C(=O)O)cc1`, for which the IC50 was > 25 µM (inactive).

With `O=c1c(O)c(-c2ccc(O)c(O)c2)oc2cc(O)cc(O)c12`, the IC50 is > 25 µM (inactive).

Take `Cc1cc(C(C#N)c2ccc(Cl)cc2)c(Cl)cc1NC(=O)c1cc(I)cc(I)c1O` (centres undefined): the IC50 was > 25 µM (inactive).

For the compound `CC(C)(C)c1ccc(C(=O)Nc2cc(Cl)c(Br)cc2C(=O)O)cc1`, the IC50 is > 25 µM (inactive).

On to `COc1ccc(N2C(=O)c3ccc(Cl)cc3C2=O)cc1`, for which the IC50 is > 25 µM (inactive).

With `CC(C)(C)c1ccc(C(=O)Nc2cc(Cl)ccc2O)cc1`, the IC50 was > 25 µM (inactive).

As to `C=C(C)c1ccc(C(=O)Nc2cc(Cl)ccc2C(=O)O)cc1`, the IC50 was > 25 µM (inactive).

As for `CC1(c2ccc(C(=O)Nc3cc(Cl)ccc3C(=O)O)cc2)CC1`, the IC50 was > 25 µM (inactive).

In the case of `CC(C)(C)c1ccc(C(=O)Nc2cc(Cl)c(Cl)cc2C(=O)O)cc1`, the IC50 is > 25 µM (inactive).

As for `CC(C)(C)c1ccc(C(=O)Nc2cc(Cl)ccc2-c2nn[nH]n2)cc1`, the IC50 was > 25 µM (inactive).

On to `COc1ccc(C(=O)Nc2cc(Cl)ccc2O)cc1`, for which the IC50 is > 25 µM (inactive).

`CC(C)(C)c1ccc(C(=O)Nc2cc(Cl)c(F)cc2C(=O)O)cc1`: the IC50 was > 25 µM (inactive).
